How the values were obtained:
Format in all cases: cell-based
GSPT1 = target: T1, GSPT1 (Homo sapiens, UniProt P15170+Q96SW2); assay: Western-blot assay, substrate protein degradation in hPBMCs: GSPT1; conditions: for GSPT1 substrate protein remaining %: compounds at 50 nM and 500 nM, 24 hours
T1 construct: effects of the compounds of the present disclosure on the expression of target proteins in cells; endogenous in cells; host or cells: human PBMCs (hPBMCs)

WEE1 = target: T2, WEE1 (Homo sapiens, UniProt P30291+Q96SW2); assay: Western-blot assay, substrate protein degradation in hPBMCs: WEE1; conditions: for WEE1 substrate protein remaining %: compounds at 50 nM and 500 nM, 24 hours
T2 construct: effects of the compounds of the present disclosure on the expression of target proteins in cells; endogenous in cells; host or cells: human PBMCs (hPBMCs)

IKZF3 = target: T3, IKZF3 (Homo sapiens, UniProt Q96SW2+Q9UKT9); assay: Western-blot assay, substrate protein degradation in hPBMCs: IKZF3; conditions: for IKZF3 substrate protein remaining %: compounds at 50 nM and 500 nM, 24 hours
T3 construct: effects of the compounds of the present disclosure on the expression of target proteins in cells; endogenous in cells; host or cells: human PBMCs (hPBMCs)

CK1α = target: T4, CK1α (Homo sapiens, UniProt P48729+Q96SW2); assay: Western-blot assay, substrate protein degradation in hPBMCs: CK1α; conditions: for CK1α substrate protein remaining %: compounds at 50 nM and 500 nM, 24 hours
T4 construct: effects of the compounds of the present disclosure on the expression of target proteins in cells; endogenous in cells; host or cells: human PBMCs (hPBMCs)

IKZF2 = target: T5, IKZF2 (Homo sapiens, UniProt Q96SW2+Q9UKS7); assay: Western-blot assay, substrate protein degradation in hPBMCs: IKZF2; conditions: for IKZF2 substrate protein remaining %: compounds at 50 nM and 500 nM, 24 hours
T5 construct: effects of the compounds of the present disclosure on the expression of target proteins in cells; endogenous in cells; host or cells: human PBMCs (hPBMCs)

IKZF1 = target: T6, IKZF1 (Homo sapiens, UniProt Q13422+Q96SW2); assay: Western-blot assay, substrate protein degradation in hPBMCs: IKZF1; conditions: for IKZF1 substrate protein remaining %: compounds at 50 nM and 500 nM, 24 hours
T6 construct: effects of the compounds of the present disclosure on the expression of target proteins in cells; endogenous in cells; host or cells: human PBMCs (hPBMCs)

[1] = 24 hours of compound treatment, 50 nM and 500 nM

T5 sequence (Q9UKS7 whole entry): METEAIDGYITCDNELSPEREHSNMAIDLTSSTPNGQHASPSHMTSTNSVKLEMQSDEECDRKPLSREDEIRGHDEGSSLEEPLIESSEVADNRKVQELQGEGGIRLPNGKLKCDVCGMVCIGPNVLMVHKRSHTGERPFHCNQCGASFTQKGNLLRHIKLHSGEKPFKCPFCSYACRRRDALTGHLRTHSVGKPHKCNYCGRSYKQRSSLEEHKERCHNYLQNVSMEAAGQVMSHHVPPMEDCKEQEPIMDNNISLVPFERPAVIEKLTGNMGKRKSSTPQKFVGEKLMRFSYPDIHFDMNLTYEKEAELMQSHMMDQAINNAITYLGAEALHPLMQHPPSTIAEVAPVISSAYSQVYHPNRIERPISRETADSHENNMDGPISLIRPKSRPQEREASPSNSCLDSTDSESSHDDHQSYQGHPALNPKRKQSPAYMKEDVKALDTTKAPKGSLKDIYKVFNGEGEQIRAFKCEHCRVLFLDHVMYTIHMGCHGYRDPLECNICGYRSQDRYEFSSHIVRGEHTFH
T5 sequence (Q96SW2 whole entry): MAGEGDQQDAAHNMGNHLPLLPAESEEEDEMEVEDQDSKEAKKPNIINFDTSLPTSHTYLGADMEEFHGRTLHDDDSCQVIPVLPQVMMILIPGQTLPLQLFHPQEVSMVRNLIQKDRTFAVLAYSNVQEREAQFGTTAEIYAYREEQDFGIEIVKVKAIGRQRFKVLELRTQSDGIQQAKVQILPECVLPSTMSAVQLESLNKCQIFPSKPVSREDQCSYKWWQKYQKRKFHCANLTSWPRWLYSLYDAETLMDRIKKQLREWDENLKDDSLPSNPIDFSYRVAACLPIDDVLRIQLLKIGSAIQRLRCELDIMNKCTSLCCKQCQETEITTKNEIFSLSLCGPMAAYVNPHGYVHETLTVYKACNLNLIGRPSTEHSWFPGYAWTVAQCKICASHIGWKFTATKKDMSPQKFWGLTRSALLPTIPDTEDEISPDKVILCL
T5 sequence (Q16531 whole entry partner): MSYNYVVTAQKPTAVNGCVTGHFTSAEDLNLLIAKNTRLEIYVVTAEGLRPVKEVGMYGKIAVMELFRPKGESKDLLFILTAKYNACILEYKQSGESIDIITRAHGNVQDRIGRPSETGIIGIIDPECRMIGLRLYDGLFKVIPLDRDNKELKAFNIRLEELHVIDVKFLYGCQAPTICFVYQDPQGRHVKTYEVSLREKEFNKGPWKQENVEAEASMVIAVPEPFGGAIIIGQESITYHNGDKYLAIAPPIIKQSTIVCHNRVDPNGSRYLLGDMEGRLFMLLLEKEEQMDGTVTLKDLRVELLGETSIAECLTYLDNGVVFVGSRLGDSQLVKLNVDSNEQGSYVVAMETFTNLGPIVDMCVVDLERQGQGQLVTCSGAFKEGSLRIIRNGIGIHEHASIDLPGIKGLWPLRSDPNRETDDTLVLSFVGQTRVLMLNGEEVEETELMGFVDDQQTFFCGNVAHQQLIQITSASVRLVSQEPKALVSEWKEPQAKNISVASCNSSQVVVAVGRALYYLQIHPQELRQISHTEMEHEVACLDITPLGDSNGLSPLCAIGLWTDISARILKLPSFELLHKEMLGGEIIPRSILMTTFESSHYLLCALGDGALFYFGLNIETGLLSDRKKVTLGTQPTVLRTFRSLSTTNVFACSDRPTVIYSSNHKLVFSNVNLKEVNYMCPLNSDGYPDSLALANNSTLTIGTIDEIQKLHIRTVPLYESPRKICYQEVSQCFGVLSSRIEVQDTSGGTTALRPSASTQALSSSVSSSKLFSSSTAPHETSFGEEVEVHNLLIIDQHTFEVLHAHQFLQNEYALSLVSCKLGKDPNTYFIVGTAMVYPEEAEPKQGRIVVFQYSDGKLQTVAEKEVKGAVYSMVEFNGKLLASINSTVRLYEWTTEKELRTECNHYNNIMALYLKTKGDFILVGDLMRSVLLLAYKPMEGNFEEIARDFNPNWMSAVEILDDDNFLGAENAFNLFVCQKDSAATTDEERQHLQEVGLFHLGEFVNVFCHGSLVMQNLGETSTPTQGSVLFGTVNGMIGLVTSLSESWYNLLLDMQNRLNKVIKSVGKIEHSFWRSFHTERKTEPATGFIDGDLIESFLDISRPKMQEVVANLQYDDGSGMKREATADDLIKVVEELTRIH
T1 sequence (P15170 whole entry): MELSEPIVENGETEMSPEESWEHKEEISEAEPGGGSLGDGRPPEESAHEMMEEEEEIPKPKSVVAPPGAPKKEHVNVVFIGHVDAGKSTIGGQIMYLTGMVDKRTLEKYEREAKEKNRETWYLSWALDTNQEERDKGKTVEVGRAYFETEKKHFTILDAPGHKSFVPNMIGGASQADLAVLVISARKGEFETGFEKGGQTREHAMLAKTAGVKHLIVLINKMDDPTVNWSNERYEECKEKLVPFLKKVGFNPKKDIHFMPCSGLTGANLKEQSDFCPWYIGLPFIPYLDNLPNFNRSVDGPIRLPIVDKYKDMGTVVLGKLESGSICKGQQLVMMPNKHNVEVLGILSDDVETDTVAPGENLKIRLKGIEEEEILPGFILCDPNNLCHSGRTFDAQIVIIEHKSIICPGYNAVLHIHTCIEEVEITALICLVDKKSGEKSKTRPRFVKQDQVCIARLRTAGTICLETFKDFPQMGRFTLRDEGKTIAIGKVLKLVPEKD
T1 sequence (Q96SW2 whole entry): as the sequence (Q96SW2 whole entry) above
T1 sequence (Q16531 whole entry partner): as the sequence (Q16531 whole entry partner) above
T4 sequence (P48729 whole entry): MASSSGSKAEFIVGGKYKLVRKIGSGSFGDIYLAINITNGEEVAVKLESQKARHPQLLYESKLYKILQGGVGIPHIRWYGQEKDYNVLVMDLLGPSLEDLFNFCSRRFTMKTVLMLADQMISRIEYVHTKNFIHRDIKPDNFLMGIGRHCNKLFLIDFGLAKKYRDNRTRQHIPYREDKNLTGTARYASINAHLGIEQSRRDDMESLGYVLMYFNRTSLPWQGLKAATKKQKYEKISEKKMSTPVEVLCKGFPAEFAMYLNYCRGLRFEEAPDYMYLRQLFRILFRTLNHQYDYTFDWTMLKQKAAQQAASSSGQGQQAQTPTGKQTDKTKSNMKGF
T4 sequence (Q96SW2 whole entry): as the sequence (Q96SW2 whole entry) above
T4 sequence (Q16531 whole entry partner): as the sequence (Q16531 whole entry partner) above
T2 sequence (P30291 whole entry): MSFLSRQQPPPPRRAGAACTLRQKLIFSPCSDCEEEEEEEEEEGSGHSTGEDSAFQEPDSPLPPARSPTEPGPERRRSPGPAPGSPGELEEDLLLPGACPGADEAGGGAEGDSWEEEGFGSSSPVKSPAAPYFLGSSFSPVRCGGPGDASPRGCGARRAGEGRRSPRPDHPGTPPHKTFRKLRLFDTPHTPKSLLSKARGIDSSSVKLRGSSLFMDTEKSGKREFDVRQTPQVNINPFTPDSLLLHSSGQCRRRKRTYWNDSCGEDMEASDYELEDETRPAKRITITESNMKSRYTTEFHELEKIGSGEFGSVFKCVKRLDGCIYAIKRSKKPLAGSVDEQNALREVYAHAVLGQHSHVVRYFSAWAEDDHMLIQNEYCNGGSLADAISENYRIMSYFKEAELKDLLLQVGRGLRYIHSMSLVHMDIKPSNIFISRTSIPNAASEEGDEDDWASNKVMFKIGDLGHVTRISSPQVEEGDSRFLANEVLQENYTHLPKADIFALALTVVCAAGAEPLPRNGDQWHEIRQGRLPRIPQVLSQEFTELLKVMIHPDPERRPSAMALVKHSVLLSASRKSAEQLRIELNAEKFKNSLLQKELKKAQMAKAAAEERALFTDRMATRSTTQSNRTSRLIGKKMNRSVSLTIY
T2 sequence (Q96SW2 whole entry): as the sequence (Q96SW2 whole entry) above
T2 sequence (Q16531 whole entry partner): as the sequence (Q16531 whole entry partner) above
T3 sequence (Q9UKT9 whole entry): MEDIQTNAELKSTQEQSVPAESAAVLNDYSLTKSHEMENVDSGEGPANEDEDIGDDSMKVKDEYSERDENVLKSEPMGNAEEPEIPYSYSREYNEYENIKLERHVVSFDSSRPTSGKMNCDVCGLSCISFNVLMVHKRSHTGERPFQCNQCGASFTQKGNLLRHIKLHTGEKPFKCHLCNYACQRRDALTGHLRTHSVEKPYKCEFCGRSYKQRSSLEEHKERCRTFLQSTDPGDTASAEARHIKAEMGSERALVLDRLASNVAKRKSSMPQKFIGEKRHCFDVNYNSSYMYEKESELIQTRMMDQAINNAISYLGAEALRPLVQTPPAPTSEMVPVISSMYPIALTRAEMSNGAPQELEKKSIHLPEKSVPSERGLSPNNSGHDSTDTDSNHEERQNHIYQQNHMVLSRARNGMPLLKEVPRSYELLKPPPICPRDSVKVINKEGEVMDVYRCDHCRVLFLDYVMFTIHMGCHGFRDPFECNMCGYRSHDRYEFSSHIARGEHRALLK
T3 sequence (Q96SW2 whole entry): as the sequence (Q96SW2 whole entry) above
T3 sequence (Q16531 whole entry partner): as the sequence (Q16531 whole entry partner) above

SMILES	GSPT1 substrate protein remaining % (GSPT1)	WEE1 substrate protein remaining % (WEE1)	IKZF3 substrate protein remaining % (IKZF3)	CK1α substrate protein remaining % (CK1α)	IKZF2 substrate protein remaining % (IKZF2)	IKZF1 substrate protein remaining % (IKZF1)	substrate protein remaining % GSPT1 (GSPT1; [1])	substrate protein remaining % WEE1 (WEE1; [1])	substrate protein remaining % IKZF3 (IKZF3; [1])	substrate protein remaining % CK1α (CK1α; [1])	substrate protein remaining % IKZF2 (IKZF2; [1])	substrate protein remaining % IKZF1 (IKZF1; [1])
CC1(C)CN(Cc2ccc3c(c2)C(=O)N(N2CCC(=O)NC2=O)C3=O)CCN1C(c1ccccc1)c1ccccc1 [GT-06385, 5-((4-benzhydryl-3,3-dimethylpiperazin-1-yl)methyl)-2-(2,4-dioxotetrahydropyrimidin-1(2H)-yl)isoindoline-1,3-dione]	A ("A" is defined as 0% ≤ substrate protein remaining % ≤ 80%)	A ("A" is defined as 0% ≤ substrate protein remaining % ≤ 80%)	A ("A" is defined as 0% ≤ substrate protein remaining % ≤ 80%)	B ("B" is defined as 80%< substrate protein remaining %≤ 100%)	B ("B" is defined as 80%< substrate protein remaining %≤ 100%)	B ("B" is defined as 80%< substrate protein remaining %≤ 100%)						
O=C1CCN(N2Cc3cc(CN4CCN(c5ncnc(Cl)c5Cl)CC4)ccc3C2=O)C(=O)N1 [GT-07028, 1-(5-((4-(5,6-dichloropyrimidin-4-yl)piperazin-1-yl)methyl)-1-oxoisoindolin-2-yl)dihydropyrimidine-2,4(1H,3H)-dione]	A ("A" is defined as 0% ≤ substrate protein remaining % ≤ 80%)	A ("A" is defined as 0% ≤ substrate protein remaining % ≤ 80%)	B ("B" is defined as 80%< substrate protein remaining %≤ 100%)	B ("B" is defined as 80%< substrate protein remaining %≤ 100%)	B ("B" is defined as 80%< substrate protein remaining %≤ 100%)	B ("B" is defined as 80%< substrate protein remaining %≤ 100%)						
O=C1CCN(N2C(=O)c3ccc(CN4CCN(C(c5ccccn5)c5ccccn5)CC4)cc3C2=O)C(=O)N1 [GT-06379, 5-((4-(di(pyridin-2-yl)methyl)piperazin-1-yl)methyl)-2-(2,4-dioxotetrahydropyrimidin-1(2H)-yl)isoindoline-1,3-dione]	A ("A" is defined as 0% ≤ substrate protein remaining % ≤ 80%)	A ("A" is defined as 0% ≤ substrate protein remaining % ≤ 80%)	A ("A" is defined as 0% ≤ substrate protein remaining % ≤ 80%)	B ("B" is defined as 80%< substrate protein remaining %≤ 100%)	A ("A" is defined as 0% ≤ substrate protein remaining % ≤ 80%)	B ("B" is defined as 80%< substrate protein remaining %≤ 100%)						
O=C1CCN(N2C(=O)c3ccc(CN4CC5CCC(C4)N5c4cccc(Cl)c4Cl)cc3C2=O)C(=O)N1 [GT-07437, 5-((8-(2,3-dichlorophenyl)-3,8-diazabicyclo[3.2.1]octan-3-yl)methyl)-2-(2,4-dioxotetrahydropyrimidin-1(2H)-yl)isoindoline-1,3-dione]							A (0% ≤ substrate protein remaining % ≤ 80%)	A (0% ≤ substrate protein remaining % ≤ 80%)	B (80%< substrate protein remaining %≤ 100%)	A (0% ≤ substrate protein remaining % ≤ 80%)	B (80%< substrate protein remaining %≤ 100%)	B (80%< substrate protein remaining %≤ 100%)
CC1CN(Cc2ccc3c(c2)C(=O)N(N2CCC(=O)NC2=O)C3=O)CC(C)N1C(c1ccccc1)c1ccccc1 (stereo not drawn) [GT-06430, 5-((4-benzhydryl-3,5-dimethylpiperazin-1-yl)methyl)-2-(2,4-dioxotetrahydropyrimidin-1(2H)-yl)isoindoline-1,3-dione]	A ("A" is defined as 0% ≤ substrate protein remaining % ≤ 80%)	A ("A" is defined as 0% ≤ substrate protein remaining % ≤ 80%)	A ("A" is defined as 0% ≤ substrate protein remaining % ≤ 80%)	B ("B" is defined as 80%< substrate protein remaining %≤ 100%)	B ("B" is defined as 80%< substrate protein remaining %≤ 100%)	A ("A" is defined as 0% ≤ substrate protein remaining % ≤ 80%)						
O=C1CCN(N2Cc3cc(CN4CCC(c5ccc(Br)cc5)CC4)ccc3C2=O)C(=O)N1 [GT-06886, 1-(5-((4-(4-bromophenyl)piperidin-1-yl)methyl)-1-oxoisoindolin-2-yl)dihydropyrimidine-2,4(1H,3H)-dione]	A ("A" is defined as 0% ≤ substrate protein remaining % ≤ 80%)	B ("B" is defined as 80%< substrate protein remaining %≤ 100%)	B ("B" is defined as 80%< substrate protein remaining %≤ 100%)	B ("B" is defined as 80%< substrate protein remaining %≤ 100%)	A ("A" is defined as 0% ≤ substrate protein remaining % ≤ 80%)	B ("B" is defined as 80%< substrate protein remaining %≤ 100%)						
O=C1CCN(N2C(=O)c3ccc(CN4CCN(Cc5ccccc5-c5ccc(Cl)cc5)CC4)cc3C2=O)C(=O)N1 [GT-06432, 5-((4-((4'-chloro-[1,1'-biphenyl]-2-yl)methyl)piperazin-1-yl)methyl)-2-(2,4-dioxotetrahydropyrimidin-1(2H)-yl)isoindoline-1,3-dione]	A ("A" is defined as 0% ≤ substrate protein remaining % ≤ 80%)	A ("A" is defined as 0% ≤ substrate protein remaining % ≤ 80%)	B ("B" is defined as 80%< substrate protein remaining %≤ 100%)	B ("B" is defined as 80%< substrate protein remaining %≤ 100%)	B ("B" is defined as 80%< substrate protein remaining %≤ 100%)	A ("A" is defined as 0% ≤ substrate protein remaining % ≤ 80%)						
O=C1CCN(N2Cc3cc(CN4CCC(c5nccc(Cl)c5Cl)CC4)ccc3C2=O)C(=O)N1 [GT-06388, 1-(5-((4-(3,4-dichloropyridin-2-yl)piperidin-1-yl)methyl)-1-oxoisoindolin-2-yl)dihydropyrimidine-2,4(1H,3H)-dione]	A ("A" is defined as 0% ≤ substrate protein remaining % ≤ 80%)	B ("B" is defined as 80%< substrate protein remaining %≤ 100%)	B ("B" is defined as 80%< substrate protein remaining %≤ 100%)	B ("B" is defined as 80%< substrate protein remaining %≤ 100%)	B ("B" is defined as 80%< substrate protein remaining %≤ 100%)	B ("B" is defined as 80%< substrate protein remaining %≤ 100%)						
Cc1ccc(Cl)cc1N1CCN(Cc2ccc3c(c2)CN(N2CCC(=O)NC2=O)C3=O)CC1 [GT-06883, 1-(5-((4-(5-chloro-2-methylphenyl)piperazin-1-yl)methyl)-1-oxoisoindolin-2-yl)dihydropyrimidine-2,4(1H,3H)-dione]	A ("A" is defined as 0% ≤ substrate protein remaining % ≤ 80%)	A ("A" is defined as 0% ≤ substrate protein remaining % ≤ 80%)	B ("B" is defined as 80%< substrate protein remaining %≤ 100%)	B ("B" is defined as 80%< substrate protein remaining %≤ 100%)	B ("B" is defined as 80%< substrate protein remaining %≤ 100%)	A ("A" is defined as 0% ≤ substrate protein remaining % ≤ 80%)						

From EP4722207A1, “OXOISOINDOLINYL-SUBSTITUTED TETRAHYDROPYRIMIDINEDIONE DERIVATIVE AND USE THEREOF” (Gluetacs Therapeutics (Shanghai) Co., Ltd., priority 2023, dated 2024)
